Assay results from patent publication US9938257B2 (Sunshine Lake Pharma Co., Ltd., priority 2015, dated 2018).

Experiments:
JAK1 (h) = JAK1 (h) (Homo sapiens (Human), UniProt P23458); assay: JAK1 (h) kinase activity assay; type: biochemical
Procedure: (§1) The above assay procedure can be used to determine the IC50 for inhibition and/or the inhibition constant, Ki. The IC50 is defined as the concentration of compound required to reduce the enzyme activity by 50% under the condition of the assay. The IC50 value is estimated by preparing a 10 point curve using a ½ log dilution series (for example, a typical curve may be prepared using the following compound concentrations: 3 μM, 1 μM, 0.3 μM, 0.1 μM, 0.03 μM, 0.01 μM, 0.003 μM, 0.001 μM, 0.0003 μM and 0 μM).
(§2) JAK1 (h) is incubated with 20 mM Tris/HCl pH 7.5, 0.2 mM EDTA, 500 μM GEEPLYWSFPAKKK, 10 mM MgAcetate and [γ-^33P-ATP] (specific activity approx. 500 cpm/pmol, concentration as required). The reaction is initiated by the addition of the MgATP mix. After incubation for 40 minutes at room temperature, the reaction is stopped by the addition of 3% phosphoric acid solution. 10 μL of the reaction is then spotted onto a P30 filtermat and washed three times for 5 minutes in 75 mM phosphoric acid and once in methanol prior to drying and scintillation counting.
(§3) The kinase assays described herein were performed at Millipore UK Ltd, Dundee Technology Park, Dundee DD2 1SW, UK.

Aurora-A (h) = Aurora-A (h) (Homo sapiens (Human), UniProt O14965); assay: Aurora-A (h) kinase activity assay; type: biochemical
Procedure: as §1
as §2, with “Aurora-A (h)” for “JAK1 (h)”, “with 8” for “with 20”, “mM MOPS” for “mM Tris/HCl”, “pH 7.0,” for “pH 7.5,”, “EDTA, 200” for “EDTA, 500”, “μM LRRASLG (Kemptide),” for “μM GEEPLYWSFPAKKK,”
as §3

JAK2 (h) = JAK2 (h) (Homo sapiens (Human), UniProt O60674); assay: JAK2 (h) kinase activity assay; type: biochemical
Procedure: as §1
as §2, with “JAK2 (h)” for “JAK1 (h)”, “with 8” for “with 20”, “mM MOPS” for “mM Tris/HCl”, “pH 7.0,” for “pH 7.5,”, “EDTA, 100” for “EDTA, 500”, “μM […],” for “μM GEEPLYWSFPAKKK,”
as §3

Aurora-B (h) = Aurora-B (h) (Homo sapiens (Human), UniProt Q96GD4); assay: Aurora-B (h) kinase activity assay; type: biochemical
Procedure: as §1
(§4) Aurora-B (h) is incubated with 8 mM MOPS pH 7.0, 0.2 mM EDTA, 30 μM AKRRRLSSLRA, 10 mM MgAcetate and [γ-^33PATP] (specific activity approx. 500 cpm/pmol, concentration as required). The reaction is initiated by the addition of the MgATP mix. After incubation for 40 minutes at room temperature, the reaction is stopped by the addition of a 3% phosphoric acid solution. 10 μL of the reaction is then spotted onto a P30 filtermat and washed three times for 5 minutes in 75 mM phosphoric acid and once in methanol prior to drying and scintillation counting.
as §3

FLT3 (h) = FLT3 (h) (Homo sapiens (Human), UniProt P36888); assay: FLT3 (h) kinase activity assay; type: biochemical
Procedure: as §1
as §4, with “FLT3” for “Aurora-B”, “[…] EAIYAAPFAKKK,” for “30 μM AKRRRLSSLRA,”, “[γ-^33P-ATP]” for “[γ-^33PATP]”, “of” for “of a”
as §3

[1] = Compound stability in human liver microsomes; type: in vitro ADME; conditions: pH 7.4; for half-life at 5 μM: human liver microsomes 0.5 mg protein/mL, compound 5 μM, NADPH 1.0 mM, 37° C., read-out: Human T1/2; for CLint scaled at 5 μM: human liver microsomes, in vivo CLint extrapolated
Summary of the method: (§5)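 Compounds (5 μM, 0.05% DMSO) were incubated at 37° C with liver microsomes (0.5 mg protein/mL) and NADPH (1.0 mM) in 100 mM potassium phosphate, pH 7.4. Samples taken at 0–60 min were quenched with cold acetonitrile and analysed by LC/MS/MS. Remaining compound was expressed as % of the zero-time value, and CLint was extrapolated.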

[2] = Compound stability in rat liver microsomes; type: in vitro ADME; conditions: pH 7.4; for half-life at 5 μM: rat liver microsomes 0.5 mg protein/mL, compound 5 μM, NADPH 1.0 mM, 37° C., read-out: Rat T1/2; for CLint scaled at 5 μM: rat liver microsomes, in vivo CLint extrapolated
Summary of the method: as §5

[3] = Pharmacokinetics after intravenous and oral administration in rats; type: in vivo; conditions: for Clearance (CL) after iv dosing / AUC(0-t) / half-life / Vd: dose 1 mg/kg, iv dosing; for F: oral bioavailability, iv dose 1 mg/kg; for AUC(0-t) / half-life / Vd: rat, plasma; for Vd: read-out: Vss
Summary of the method: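 IV doses generally 0.5, 1 or 2 mg/kg; oral doses in rats generally 0.5, 1, 5 or 10 mg/kg, given as solution, suspension or capsule in various vehicles. Blood sampled over 0.083 or 0.25 h to 24 h; plasma analysed by LC/MS/MS.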

Sequence of Aurora-A (h) (O14965 whole entry): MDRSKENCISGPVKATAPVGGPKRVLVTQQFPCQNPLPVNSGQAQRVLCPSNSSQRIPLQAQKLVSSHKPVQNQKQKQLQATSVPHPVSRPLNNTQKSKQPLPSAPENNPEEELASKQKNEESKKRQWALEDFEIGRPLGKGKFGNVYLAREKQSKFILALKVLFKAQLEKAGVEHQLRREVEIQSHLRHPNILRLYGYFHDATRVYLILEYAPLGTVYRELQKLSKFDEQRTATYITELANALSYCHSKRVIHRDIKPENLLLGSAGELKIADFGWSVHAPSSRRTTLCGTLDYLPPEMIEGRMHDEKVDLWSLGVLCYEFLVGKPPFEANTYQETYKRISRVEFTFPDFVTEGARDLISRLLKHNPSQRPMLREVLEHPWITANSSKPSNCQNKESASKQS
Sequence of JAK2 (h) (O60674 whole entry): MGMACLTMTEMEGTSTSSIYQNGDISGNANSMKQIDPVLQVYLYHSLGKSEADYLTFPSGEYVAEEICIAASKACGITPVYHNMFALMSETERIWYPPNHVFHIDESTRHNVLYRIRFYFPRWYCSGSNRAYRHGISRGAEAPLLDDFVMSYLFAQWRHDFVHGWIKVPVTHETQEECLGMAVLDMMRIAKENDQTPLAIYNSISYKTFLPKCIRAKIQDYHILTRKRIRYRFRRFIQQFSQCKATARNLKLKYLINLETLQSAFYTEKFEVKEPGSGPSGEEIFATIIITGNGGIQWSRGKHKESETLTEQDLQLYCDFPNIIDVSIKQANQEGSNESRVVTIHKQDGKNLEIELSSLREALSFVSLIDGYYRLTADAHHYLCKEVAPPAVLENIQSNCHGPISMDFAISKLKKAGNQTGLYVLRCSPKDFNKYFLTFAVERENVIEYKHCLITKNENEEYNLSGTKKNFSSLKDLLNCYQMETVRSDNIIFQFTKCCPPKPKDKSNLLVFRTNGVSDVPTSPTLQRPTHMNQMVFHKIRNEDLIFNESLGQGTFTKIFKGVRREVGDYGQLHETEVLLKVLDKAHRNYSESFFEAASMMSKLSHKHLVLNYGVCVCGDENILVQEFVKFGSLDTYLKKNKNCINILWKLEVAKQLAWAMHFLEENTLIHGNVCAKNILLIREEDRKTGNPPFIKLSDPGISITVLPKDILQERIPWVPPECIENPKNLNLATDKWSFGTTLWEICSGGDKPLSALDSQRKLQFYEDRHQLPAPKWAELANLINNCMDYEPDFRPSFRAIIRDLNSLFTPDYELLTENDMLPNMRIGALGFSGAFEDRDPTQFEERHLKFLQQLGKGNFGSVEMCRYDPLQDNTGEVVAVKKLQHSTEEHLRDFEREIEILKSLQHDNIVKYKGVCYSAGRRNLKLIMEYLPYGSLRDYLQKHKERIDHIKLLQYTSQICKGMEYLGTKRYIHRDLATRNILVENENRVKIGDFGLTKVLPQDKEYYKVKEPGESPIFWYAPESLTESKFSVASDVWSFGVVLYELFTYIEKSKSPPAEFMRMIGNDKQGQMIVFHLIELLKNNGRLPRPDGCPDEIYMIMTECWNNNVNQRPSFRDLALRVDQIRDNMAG
Sequence of Aurora-B (h) (Q96GD4 whole entry): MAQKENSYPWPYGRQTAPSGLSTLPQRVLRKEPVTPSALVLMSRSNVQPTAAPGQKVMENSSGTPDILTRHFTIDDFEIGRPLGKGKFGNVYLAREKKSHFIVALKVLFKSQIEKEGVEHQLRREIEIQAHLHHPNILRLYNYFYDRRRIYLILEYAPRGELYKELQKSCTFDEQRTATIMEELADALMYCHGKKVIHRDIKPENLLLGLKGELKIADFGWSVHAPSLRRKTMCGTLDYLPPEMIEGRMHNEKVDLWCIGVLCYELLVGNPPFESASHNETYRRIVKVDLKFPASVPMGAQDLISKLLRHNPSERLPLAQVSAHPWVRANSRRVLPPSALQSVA
Sequence of JAK1 (h) (P23458 whole entry): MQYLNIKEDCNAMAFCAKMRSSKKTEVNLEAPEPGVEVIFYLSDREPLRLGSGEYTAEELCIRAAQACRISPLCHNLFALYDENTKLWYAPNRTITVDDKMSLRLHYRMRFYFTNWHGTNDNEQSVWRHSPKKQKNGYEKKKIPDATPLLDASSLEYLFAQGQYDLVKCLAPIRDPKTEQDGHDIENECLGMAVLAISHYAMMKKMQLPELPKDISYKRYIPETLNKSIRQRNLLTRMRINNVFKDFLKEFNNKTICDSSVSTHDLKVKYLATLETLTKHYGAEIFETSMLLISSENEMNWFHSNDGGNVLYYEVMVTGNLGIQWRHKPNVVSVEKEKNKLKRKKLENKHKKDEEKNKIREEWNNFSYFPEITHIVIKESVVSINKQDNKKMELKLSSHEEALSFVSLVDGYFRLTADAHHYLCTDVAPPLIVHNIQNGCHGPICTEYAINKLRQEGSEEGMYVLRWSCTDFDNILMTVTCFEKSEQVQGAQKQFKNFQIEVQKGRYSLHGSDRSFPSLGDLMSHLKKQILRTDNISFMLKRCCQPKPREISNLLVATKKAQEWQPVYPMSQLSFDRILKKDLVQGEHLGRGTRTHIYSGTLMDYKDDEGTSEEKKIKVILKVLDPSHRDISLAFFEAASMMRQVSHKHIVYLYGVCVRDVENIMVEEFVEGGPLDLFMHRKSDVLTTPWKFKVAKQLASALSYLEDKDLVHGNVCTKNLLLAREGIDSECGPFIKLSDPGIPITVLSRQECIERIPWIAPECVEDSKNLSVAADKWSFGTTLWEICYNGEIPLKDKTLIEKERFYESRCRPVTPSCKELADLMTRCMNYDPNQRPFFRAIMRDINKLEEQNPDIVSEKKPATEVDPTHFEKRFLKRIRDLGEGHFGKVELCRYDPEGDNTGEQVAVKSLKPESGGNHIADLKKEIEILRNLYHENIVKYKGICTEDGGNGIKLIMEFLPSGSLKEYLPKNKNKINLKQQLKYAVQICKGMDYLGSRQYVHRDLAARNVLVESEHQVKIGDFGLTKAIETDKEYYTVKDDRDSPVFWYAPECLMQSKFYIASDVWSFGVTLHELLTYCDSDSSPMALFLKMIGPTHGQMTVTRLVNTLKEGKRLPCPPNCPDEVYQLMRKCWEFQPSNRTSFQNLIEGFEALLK
Sequence of FLT3 (h) (P36888 27-993): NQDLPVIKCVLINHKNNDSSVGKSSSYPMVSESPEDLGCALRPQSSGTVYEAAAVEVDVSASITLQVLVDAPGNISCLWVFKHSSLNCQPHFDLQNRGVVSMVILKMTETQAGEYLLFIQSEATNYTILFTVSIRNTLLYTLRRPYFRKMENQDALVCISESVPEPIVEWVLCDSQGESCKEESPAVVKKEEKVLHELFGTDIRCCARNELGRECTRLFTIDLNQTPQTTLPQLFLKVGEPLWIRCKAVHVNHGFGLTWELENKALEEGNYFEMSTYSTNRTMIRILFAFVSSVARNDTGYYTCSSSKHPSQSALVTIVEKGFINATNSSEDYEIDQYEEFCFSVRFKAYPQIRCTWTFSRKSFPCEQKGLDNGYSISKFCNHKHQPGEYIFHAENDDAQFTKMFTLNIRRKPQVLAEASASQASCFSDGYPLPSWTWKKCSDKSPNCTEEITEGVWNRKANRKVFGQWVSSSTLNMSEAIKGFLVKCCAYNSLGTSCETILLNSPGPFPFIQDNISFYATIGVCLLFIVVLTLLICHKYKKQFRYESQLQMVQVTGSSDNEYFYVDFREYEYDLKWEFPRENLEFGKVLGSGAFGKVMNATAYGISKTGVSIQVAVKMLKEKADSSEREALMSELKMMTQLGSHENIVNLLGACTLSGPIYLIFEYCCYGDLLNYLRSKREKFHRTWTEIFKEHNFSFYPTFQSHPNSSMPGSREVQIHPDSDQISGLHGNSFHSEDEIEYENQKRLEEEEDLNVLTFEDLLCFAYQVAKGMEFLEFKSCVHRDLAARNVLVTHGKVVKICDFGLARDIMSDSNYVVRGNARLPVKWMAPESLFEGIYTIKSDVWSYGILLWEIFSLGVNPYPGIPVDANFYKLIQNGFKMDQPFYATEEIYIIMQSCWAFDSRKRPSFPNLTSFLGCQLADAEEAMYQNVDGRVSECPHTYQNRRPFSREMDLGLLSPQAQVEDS

N#CCC(=O)N1CC2CC(Nc3nc(Nc4cnn(-c5ccccn5)c4)ncc3Cl)CC2C1 (centres unmarked) [Ex. 7, 3-(5-((5-chloro-2-((1-(pyridin-2-yl)-1H-pyrazol-4-yl)amino)pyrimidin-4-yl)amino)hexahydrocyclopenta[c]pyrrol-2(1H)-yl)-3-oxopropanenitrile]
IC50 (JAK1 (h)): 0.6 nM | IC50 (Aurora-A (h)): 8 nM | IC50 (JAK2 (h)): 20 nM

COc1ccc(-n2cc(Nc3ncc(Cl)c(NC4CC5CN(C(=O)CC#N)CC5C4)n3)cn2)cn1 (centres unmarked) [Ex. 10, 3-(5-((5-chloro-2-((1-(6-methoxypyridin-3-yl)-1H-pyrazol-4-yl)amino)pyrimidin-4-yl)amino)hexahydrocyclopenta[c]pyrrol-2(1H)-yl)-3-oxopropanenitrile]
IC50 (JAK1 (h)): < 0.3 nM | IC50 (Aurora-A (h)): 4 nM | IC50 (JAK2 (h)): 16 nM

CCOC(=O)N1CC2CC(Nc3nc(Nc4cnn(C)c4)ncc3Cl)CC2C1 (centres unmarked) [Ex. 15, ethyl 5-((5-chloro-2-((1-methyl-1H-pyrazol-4-yl)amino)pyrimidin-4-yl)amino)hexahydrocyclopenta[c]pyrrole-2(1H)-carboxylate]
IC50 (JAK1 (h)): 8 nM | IC50 (Aurora-A (h)): 10 nM | IC50 (JAK2 (h)): 136 nM | IC50 (Aurora-B (h)): 2 nM | IC50 (FLT3 (h)): 503 nM

CCNC(=O)N1CC2CC(Nc3nc(Nc4cnn(C)c4)ncc3Cl)CC2C1 (centres unmarked) [Ex. 18, 5-((5-chloro-2-((1-methyl-1H-pyrazol-4-yl)amino)pyrimidin-4-yl)amino)-N-ethylhexahydrocyclopenta[c]pyrrole-2(1H)-carboxamide]
half-life at 5 μM [1]: 145 min | CLint scaled at 5 μM [1]: 12 mL/min/kg | half-life at 5 μM [2]: 9.46 min | CLint scaled at 5 μM [2]: 263 mL/min/kg | IC50 (JAK1 (h)): 12 nM | IC50 (Aurora-A (h)): 11 nM | IC50 (JAK2 (h)): 142 nM | IC50 (Aurora-B (h)): 2 nM | IC50 (FLT3 (h)): 1020 nM

CCNS(=O)(=O)N1CC2CC(Nc3nc(Nc4cnn(C)c4)ncc3Cl)CC2C1 (centres unmarked) [Ex. 24, 5-((5-chloro-2-((1-methyl-1H-pyrazol-4-yl)amino)pyrimidin-4-yl)amino)-N-ethylhexahydrocyclopenta[c]pyrrole-2(1H)-sulfonamide]
half-life at 5 μM [1]: 34 min | CLint scaled at 5 μM [1]: 51.2 mL/min/kg | half-life at 5 μM [2]: 9.3 min | CLint scaled at 5 μM [2]: 267 mL/min/kg | Clearance (CL) after iv dosing [3]: 4.55 L/h/kg | F [3]: 31.9% | AUC(0-t) [3]: 231 ng·h/mL | half-life [3]: 24 min | Vd [3]: 2.02 L/kg | IC50 (JAK1 (h)): 2 nM | IC50 (Aurora-A (h)): 3 nM | IC50 (Aurora-B (h)): 0.7 nM

Cn1cc(Nc2ncc(Cl)c(NC3CC4CN(S(=O)(=O)NC5CC5)CC4C3)n2)cn1 (centres unmarked) [Ex. 34, 5-((5-chloro-2-((1-methyl-1H-pyrazol-4-yl)amino)pyrimidin-4-yl)amino)-N-cyclopropylhexahydrocyclopenta[c]pyrrole-2(1H)-sulfonamide]
half-life at 5 μM [1]: 35.7 min | CLint scaled at 5 μM [1]: 48.6 mL/min/kg | half-life at 5 μM [2]: 17.8 min | CLint scaled at 5 μM [2]: 140 mL/min/kg | Clearance (CL) after iv dosing [3]: 2.93 L/h/kg | F [3]: 54.0% | AUC(0-t) [3]: 348 ng·h/mL | half-life [3]: 17.4 min | Vd [3]: 1.18 L/kg | IC50 (JAK1 (h)): 3 nM | IC50 (Aurora-A (h)): 1 nM | IC50 (Aurora-B (h)): 0.8 nM

CC(C)(O)Cn1cc(Nc2ncc(Cl)c(NC3CCC4(CC3)CCN(S(C)(=O)=O)CC4)n2)cn1 [Ex. 37, 1-(4-((5-chloro-4-((3-(methylsulfonyl)-3-azaspiro[5.5]undecan-9-yl)amino)pyrimidin-2-yl)amino)-1H-pyrazol-1-yl)-2-methylpropan-2-ol]
half-life at 5 μM [1]: 54.3 min | CLint scaled at 5 μM [1]: 32 mL/min/kg | half-life at 5 μM [2]: 70.5 min | CLint scaled at 5 μM [2]: 35.2 mL/min/kg | Clearance (CL) after iv dosing [3]: 1.76 L/h/kg | F [3]: 53.6% | AUC(0-t) [3]: 604 ng·h/mL | half-life [3]: 75 min | Vd [3]: 2.61 L/kg | IC50 (JAK1 (h)): 2 nM | IC50 (Aurora-A (h)): 71 nM | IC50 (JAK2 (h)): 131 nM

CC(O)Cn1cc(Nc2ncc(Cl)c(NC3CC4CN(S(C)(=O)=O)CC4C3)n2)cn1 (centres unmarked) [Ex. 38, 1-(4-((5-chloro-4-((2-(methylsulfonyl)octahydrocyclopenta[c]pyrrol-5-yl)amino)pyrimidin-2-yl)amino)-1H-pyrazol-1-yl)propan-2-ol]
half-life at 5 μM [1]: 67.1 min | CLint scaled at 5 μM [1]: 25.9 mL/min/kg | half-life at 5 μM [2]: 45.5 min | CLint scaled at 5 μM [2]: 54.6 mL/min/kg | Clearance (CL) after iv dosing [3]: 3.77 L/h/kg | F [3]: 35.3% | AUC(0-t) [3]: 270 ng·h/mL | half-life [3]: 25.2 min | Vd [3]: 1.65 L/kg | IC50 (JAK1 (h)): 1 nM | IC50 (Aurora-A (h)): 0.8 nM | IC50 (Aurora-B (h)): 1 nM

CC(C)(O)Cn1cc(Nc2ncc(Cl)c(NC3CC4CN(S(C)(=O)=O)CC4C3)n2)cn1 (centres unmarked) [Ex. 39, 1-(4-((5-chloro-4-((2-(methylsulfonyl)octahydrocyclopenta[c]pyrrol-5-yl)amino)pyrimidin-2-yl)amino)-1H-pyrazol-1-yl)-2-methylpropan-2-ol]
half-life at 5 μM [1]: 49.6 min | CLint scaled at 5 μM [1]: 35 mL/min/kg | half-life at 5 μM [2]: 39.2 min | CLint scaled at 5 μM [2]: 63.3 mL/min/kg | Clearance (CL) after iv dosing [3]: 5.76 L/h/kg | F [3]: 40.5% | AUC(0-t) [3]: 295 ng·h/mL | half-life [3]: 38.4 min | Vd [3]: 1.88 L/kg | IC50 (JAK1 (h)): 2 nM | IC50 (Aurora-A (h)): 2 nM | IC50 (Aurora-B (h)): 1 nM
